Results reported in patent publication US11758905B2, “Amphotericin B and β-1,3-glucanase loaded bi-functional nano-system with both targets, preparation method and application thereof” (QINGDAO AGRICULTURAL UNIVERSITY, priority 2021, dated 2023).

Key:
Format in all cases: cell-based
[1] = tested on: Candida albicans BF 1; assay: Minimum inhibitory concentration determination; details: clinical isolate BF 1; 24 h, 37° C.
Method: (§1) Fungus strain: Candida albicans DAY185; 3 clinical isolates of Candida albicans, obtained from Medical University of Vienna, named as Candida albicans BF 1, BF 2 and BF 3.
(§2) 100 μl of Candida albicans (1×10^6 CFU/mL) is added to a 96-pore plate containing different concentrations (2, 1, 0.5, 0.25, 0.125, 0.0625 or 0 μg/mL) of free AmpB and CSNP-AmpB-Gls. The micropore plate is rotated at a rotation speed of 150 rpm and incubated at 37° C. for 24 h. The minimum inhibitory concentration is defined as the minimum AmpB concentration at which visible growth cannot be detected.

[2] = tested on: Candida albicans BF 2; assay: Minimum inhibitory concentration determination; details: clinical isolate BF 2; 24 h, 37° C.
Method: as §1, §2

[3] = tested on: Candida albicans BF 3; assay: Minimum inhibitory concentration determination; details: clinical isolate BF 3; 24 h, 37° C.
Method: as §1, §2

[4] = tested on: Candida albicans DAY185; assay: Minimum inhibitory concentration determination; details: strain DAY 185; 24 h, 37° C.; minimum AmpB concentration without visible growth
Method: as §1, §2

[5] = tested on: Candida albicans biofilm on silica gel; assay: Influence on medical silica gel surface biofilm (CLSM viable/dead staining, SEM)
Method: The biofilm on a silica gel is treated by free AmpB and NPs by following the method described above. The biofilm structure is studied through a scanning electron microscope. The biofilm survivability is observed with CLSM, and viable/dead fungus staining kit is used for staining, […]

C[C@@H]1[C@H](O)[C@@H](C)/C=C/C=C/C=C/C=C/C=C/C=C/C=C/[C@H](O[C@@H]2O[C@H](C)[C@@H](O)[C@H](N)[C@@H]2O)C[C@@H]2O[C@](O)(C[C@@H](O)C[C@@H](O)[C@H](O)CC[C@@H](O)C[C@@H](O)CC(=O)O[C@H]1C)C[C@H](O)[C@H]2C(=O)O [AmpB, amphotericin B]
AmpB MIC [1]: 2 µg/mL
AmpB MIC [2]: 2 µg/mL
AmpB MIC [3]: 4 µg/mL
AmpB MIC [4]: 1 µg/mL
biofilm structure change by SEM ([5]; silica gel, FIG. 6): significantly reduces fungus colonization
cell viability of the biofilm on silica gel by CLSM ([5]; viable/dead staining, FIG. 5): green (viable cells) is significantly reduced
